Data taken from US20240199546A1, “INHIBITORS OF SOLUTE CARRIER FAMILY 6A MEMBER 19 (SLC6A19) AND METHODS OF USE THEREOF” (Maze Therapeutics, Inc., priority 2022, published 2024).

target: T1, human SLC6A19 and TMEM27 (Homo sapiens, UniProt Q695T7); experiment: 13C6,15N-isoleucine uptake in CHO cells with doxycycline-inducible expression of human SLC6A19 and TMEM27, RapidFire mass spectrometry (Example B-2); format: cell-based; details: read-out: SLC6A19_RapidFire Uptake Assay IC50
T1 construct: expressed in transfected cells
T1 sequence (Q695T7 1-634): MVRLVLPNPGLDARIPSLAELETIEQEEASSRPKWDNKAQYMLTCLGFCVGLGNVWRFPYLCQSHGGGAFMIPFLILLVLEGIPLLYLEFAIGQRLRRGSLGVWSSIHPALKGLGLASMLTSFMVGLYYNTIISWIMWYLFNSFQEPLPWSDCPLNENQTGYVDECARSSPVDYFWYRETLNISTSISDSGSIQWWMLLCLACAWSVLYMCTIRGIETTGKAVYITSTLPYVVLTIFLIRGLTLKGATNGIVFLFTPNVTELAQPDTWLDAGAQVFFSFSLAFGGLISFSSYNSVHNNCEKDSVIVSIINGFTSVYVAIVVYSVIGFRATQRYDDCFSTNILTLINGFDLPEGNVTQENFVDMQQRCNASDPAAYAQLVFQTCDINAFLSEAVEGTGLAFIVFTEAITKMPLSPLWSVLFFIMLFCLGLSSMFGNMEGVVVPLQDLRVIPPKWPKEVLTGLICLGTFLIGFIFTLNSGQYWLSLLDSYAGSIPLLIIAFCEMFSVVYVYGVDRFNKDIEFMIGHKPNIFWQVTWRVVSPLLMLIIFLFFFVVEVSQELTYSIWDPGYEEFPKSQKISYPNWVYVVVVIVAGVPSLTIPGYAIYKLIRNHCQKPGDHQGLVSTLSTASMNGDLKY
T1 sequence (Q9HBJ8 15-222 partner): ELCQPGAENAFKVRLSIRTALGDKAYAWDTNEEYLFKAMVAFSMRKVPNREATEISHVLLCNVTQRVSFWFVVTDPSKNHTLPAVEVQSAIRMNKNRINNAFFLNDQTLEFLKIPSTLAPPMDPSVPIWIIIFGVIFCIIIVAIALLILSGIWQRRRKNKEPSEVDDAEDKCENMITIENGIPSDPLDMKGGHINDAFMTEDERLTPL
Procedure: Assay ready vials of CHO cells with doxycycline inducible expression of human SLC6A19 and TMEM27 were thawed, plated in T175 flasks containing DMEM/F12 media, 10% FBS, 1% Penicillin-Streptomycin, 1× UltraGlutamate, 1 mM Sodium Pyruvate, Sodium Bicarbonate (7.5 mL of 7.5% solution in 500 mL media final), 5 μg/mL Blasticidin, 150 μg/mL Hygromycin B Gold, and 500 μg/mL G418, and incubated (humidified, 37° C. with 5% CO2) for 48 hours. Media was then removed, flasks were washed with 20 mL of DPBS, and 5 mL of TrypLE™ Express was added to each flask to initiate cell dissociation. After 5 minutes, 10 mL of cell culture media was added to each flask and mixed. The cell suspension was collected and centrifuged for 5 minutes at 200×g. The supernatant was removed, and the pellet was resuspended in 10 mL of cell culture media. Resuspended cells were counted using a Vi-Cell. 30 μL/well (20,000 cells/well) of cell suspension was added to Poly-D-Lysine 384-well black/clear plates. Plates were incubated (humidified, 37° C. with 5% CO2) for 24 hours. To induce expression of human SLC6A19 and TMEM27, 10 μL of assay culture media containing 4 μg/mL doxycycline was added to each well. Assay plates were then incubated (humidified, 37° C. with 5% CO2) overnight. After incubation, the media was removed, and wells were washed 3 times with 40 μL of warmed DPBS. Next, 10 μL of warmed assay buffer (137 mM NaCl, 5 mM KCl, 1 mM CaCl2), 1 mM MgCl2, 10 mM HEPES, 10 mM glucose, pH 7.2) was added to each well. 10 μL/well of test compound or positive control compound to define 0% activity (i.e., 100% inhibition), was then added into each well. All compounds were plated in a duplicate 10-point dilution series that consisted of 2-fold dilutions. The plates were incubated (humidified, 37° C. with 5% C2) with compound for 20 minutes. Afterwards, 20 μL/well of 2 mM 13C6,15N-1-isoleucine was added to each well and plates were incubated again (humidified, 37° C. with 5% C02) for another 20 minutes. Assay buffer was then removed, and plates were washed. 70 μL/well of stop solution (75% acetonitrile, 25% HPLC grade water, 250 nM 1-leucine-1-13C (RapidFire standard)) was added to each well. The plates were sealed and then placed in a −20° C. freezer for 20 minutes. The plates were thawed at room temperature for 20 minutes and then centrifuge for 20 minutes at 3000 rpm. Using an ABSciex API4000 mass spectrometer, processed samples were loaded onto the graphitic carbon SPE-column. The time for aspiration, load/wash, elution and re-equilibration time was 600, 1500, 3000 and 500 milliseconds, respectively. Peak areas were calculated using RapidFire Integrator software.

SMILES	IC50 [µM]
CC1(C(=O)NCc2cc3cc(Cl)c(OCc4cncc(F)c4)cc3[nH]2)CC1 [Compound 36, N-((5-chloro-6-((5-fluoropyridin-3-yl)methoxy)-1H-indol-2-yl)methyl)-1-methylcyclopropane-1-carboxamide]	0.316
CC(C)C(=O)NCc1cc2cc(Cl)c(OCc3ccon3)cc2[nH]1 [Compound 132, N-((5-chloro-6-(isoxazol-3-ylmethoxy)-1H-indol-2-yl)methyl)isobutyramide]	0.103
CCC(=O)NCc1cc2cc(Cl)c(OCc3cc(C)on3)cc2[nH]1 [Compound 128, N-((5-chloro-6-((5-methylisoxazol-3-yl)methoxy)-1H-indol-2-yl)methyl)propionamide]	0.032
CC(=O)NCc1cc2cc(F)c(OCc3cc(C)no3)cc2[nH]1 [Compound 223, N-((5-fluoro-6-((3-methylisoxazol-5-yl)methoxy)-1H-indol-2-yl)methyl)acetamide]	0.796
CC1(C(=O)NCc2cc3cc(F)c(OCc4cscn4)cc3[nH]2)CC1 [Compound 8, N-((5-fluoro-6-(thiazol-4-ylmethoxy)-1H-indol-2-yl)methyl)-1-methylcyclopropane-1-carboxamide]	0.051
CC1(C(=O)NCc2[nH]c3cc(OCc4ccon4)ccc3c2Cl)CC1 [Compound 157, N-((3-chloro-6-(isoxazol-3-ylmethoxy)-1H-indol-2-yl)methyl)-1-methylcyclopropane-1-carboxamide]	0.043
CCC(=O)NCc1cc2ccc(NCc3ccccc3)cc2[nH]1 [Compound 1, N-((6-(benzylamino)-1H-indol-2-yl)methyl)propionamide]	5.54
CC1(C(=O)NCc2cc3ccc(OCc4nncs4)cc3[nH]2)CC1 [Compound 171, N-((6-((1,3,4-thiadiazol-2-yl)methoxy)-1H-indol-2-yl)methyl)-1-methylcyclopropane-1-carboxamide]	1.73
Cc1cc(Oc2ccc3cc(CNC(=O)C4(C)CC4)[nH]c3c2)no1 [Compound 78, 1-methyl-N-((6-((5-methylisoxazol-3-yl)oxy)-1H-indol-2-yl)methyl)cyclopropanecarboxamide]	5.18
CC1(C(=O)NCc2cc3cc(Cl)c(Cc4ccon4)cc3[nH]2)CC1 [Compound 159, N-((5-chloro-6-(isoxazol-3-ylmethyl)-1H-indol-2-yl)methyl)-1-methylcyclopropanecarboxamide]	0.493
Cn1nnc(COc2ccc3cc(CNC(=O)C4(C)CC4)[nH]c3c2)n1 [Compound 174, 1-methyl-N-((6-((2-methyl-2H-tetrazol-5-yl)methoxy)-1H-indol-2-yl)methyl)cyclopropane-1-carboxamide]	2.08
CC1(C(=O)NCc2cc3ccc(OCc4ccc(Cl)cc4)cc3[nH]2)CC1 [Compound 44, N-((6-((4-chlorobenzyl)oxy)-1H-indol-2-yl)methyl)-1-methylcyclopropane-1-carboxamide]	0.838
CC1(C(=O)NCc2cc3cc(F)c(OCc4cnco4)cc3[nH]2)CC1 [Compound 57, N-((5-fluoro-6-(oxazol-5-ylmethoxy)-1H-indol-2-yl)methyl)-1-methylcyclopropane-1-carboxamide]	0.577
CC1(C(=O)NCc2[nH]c3cc(OCc4ccccc4)ccc3c2Cl)CC1 [Compound 158, N-((6-(benzyloxy)-3-chloro-1H-indol-2-yl)methyl)-1-methylcyclopropane-1-carboxamide]	0.188
CNC(=O)NCc1cc2cc(Cl)c(OCc3ccon3)cc2[nH]1 [Compound 110, 1-((5-chloro-6-(isoxazol-3-ylmethoxy)-1H-indol-2-yl)methyl)-3-methylurea]	0.464

Other lines, results leading:

IC50 [µM]	SMILES
5.89	CNC(=O)NCc1cc2ccc(OCc3ccon3)cc2[nH]1 [Compound 107, 1-((6-(isoxazol-3-ylmethoxy)-1H-indol-2-yl)methyl)-3-methylurea]
0.926	Cn1ncc(COc2ccc3cc(CNC(=O)C4(C)CC4)[nH]c3c2)n1 [Compound 173, 1-methyl-N-((6-((2-methyl-2H-1,2,3-triazol-4-yl)methoxy)-1H-indol-2-yl)methyl)cyclopropane-1-carboxamide]
0.098	CC1(C(=O)NCc2cc3ccc(OCc4cscn4)cc3[nH]2)CC1 [Compound 164, 1-methyl-N-((6-(thiazol-4-ylmethoxy)-1H-indol-2-yl)methyl)cyclopropane-1-carboxamide]
2.11	CC1(C(=O)NCc2cc3ccc(OCc4cncnc4)cc3[nH]2)CC1 [Compound 52, 1-methyl-N-((6-(pyrimidin-5-ylmethoxy)-1H-indol-2-yl)methyl)cyclopropane-1-carboxamide]
1.42	Cc1nc(COc2ccc3cc(CNC(=O)C4(C)CC4)[nH]c3c2)cs1 [Compound 179, 1-methyl-N-((6-((2-methylthiazol-4-yl)methoxy)-1H-indol-2-yl)methyl)cyclopropane-1-carboxamide]
0.183	Cc1cc(COc2ccc3cc(CNC(=O)C4(C)CC4)[nH]c3c2)on1 [Compound 181, 1-methyl-N-((6-((3-methylisoxazol-5-yl)methoxy)-1H-indol-2-yl)methyl)cyclopropane-1-carboxamide]
0.493	CC1(C(=O)NCc2cc3ccc(OCc4cncs4)cc3[nH]2)CC1 [Compound 48, 1-methyl-N-((6-(thiazol-5-ylmethoxy)-1H-indol-2-yl)methyl)cyclopropane-1-carboxamide]
0.613	O=C(NCc1cc2ccc(OCc3cncs3)cc2[nH]1)N1CCCC1 [Compound 106, N-((6-(thiazol-5-ylmethoxy)-1H-indol-2-yl)methyl)pyrrolidine-1-carboxamide]
0.644	O=C(NCc1cc2ccc(OCc3cocn3)cc2[nH]1)N1CCCC1 [Compound 105, N-((6-(oxazol-4-ylmethoxy)-1H-indol-2-yl)methyl)pyrrolidine-1-carboxamide]
0.412	CC1(C(=O)NCc2cc3ccc(OCc4cocn4)cc3[nH]2)CC1 [Compound 49, 1-methyl-N-((6-(oxazol-4-ylmethoxy)-1H-indol-2-yl)methyl)cyclopropane-1-carboxamide]
0.563	Cc1nc(COc2ccc3cc(CNC(=O)C4(C)CC4)[nH]c3c2)co1 [Compound 180, 1-methyl-N-((6-((2-methyloxazol-4-yl)methoxy)-1H-indol-2-yl)methyl)cyclopropane-1-carboxamide]

target: T1, human SLC6A19 and TMEM27; experiment: Radiolabelled (3H) leucine uptake in CHO cells with doxycycline-inducible expression of human SLC6A19 and TMEM27 (Example B-1); format: cell-based; details: CHO cells with doxycycline-inducible expression of human SLC6A19 and TMEM27, read-out: SLC6A19_Radioligand Uptake Assay IC50
In short: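 CHO cells were induced with doxycycline for 18 h at 37 °C, washed in HBSS, then exposed to compounds for 1 h: 8-point, 3-fold dilutions in duplicate, 0.5% DMSO final. Uptake measured by scintillation counting after 2 h shaking. Activity normalized with positive control as 0% and DMSO as 100%.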

IC50 [µM]	SMILES
0.716	CC1(C(=O)NCc2cc3cc(Cl)c(OCc4cncc(F)c4)cc3[nH]2)CC1 [Compound 36, N-((5-chloro-6-((5-fluoropyridin-3-yl)methoxy)-1H-indol-2-yl)methyl)-1-methylcyclopropane-1-carboxamide]
0.136	CC(C)C(=O)NCc1cc2cc(Cl)c(OCc3ccon3)cc2[nH]1 [Compound 132, N-((5-chloro-6-(isoxazol-3-ylmethoxy)-1H-indol-2-yl)methyl)isobutyramide]
0.07	CCC(=O)NCc1cc2cc(Cl)c(OCc3cc(C)on3)cc2[nH]1 [Compound 128, N-((5-chloro-6-((5-methylisoxazol-3-yl)methoxy)-1H-indol-2-yl)methyl)propionamide]
0.203	CC(=O)NCc1cc2cc(F)c(OCc3cc(C)no3)cc2[nH]1 [Compound 223, N-((5-fluoro-6-((3-methylisoxazol-5-yl)methoxy)-1H-indol-2-yl)methyl)acetamide]
0.119	CC1(C(=O)NCc2cc3cc(F)c(OCc4cscn4)cc3[nH]2)CC1 [Compound 8, N-((5-fluoro-6-(thiazol-4-ylmethoxy)-1H-indol-2-yl)methyl)-1-methylcyclopropane-1-carboxamide]
